# Key:
# surinam grass = experiment: Test B pre/postemergence surinam grass; format: in vivo, Brachiaria decumbens
# Summary of the method: (§1)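 Response is a visual 0-to-10 score relative to untreated plants, where 0 means no effect and 10 means complete control, taken twelve to sixteen days after application. Treatments went onto soil at planting and onto foliage of 1- to 4-leaf plants, using a surfactant-containing non-phytotoxic solvent.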
# smallflower flatsedge = experiment: Test B flood test smallflower flatsedge; format: in vivo, Cyperus difformis
# Summary of the method: (§2)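 Each value is a visual injury score relative to controls, with 10 meaning complete control and 0 no effect. Evaluation took place twelve to sixteen days after the 2-leaf-stage plants were treated and kept in the greenhouse.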
# cocklebur = experiment: Test B pre/postemergence cocklebur; format: in vivo, Xanthium strumarium
# Summary of the method: as §1
# blackgrass = experiment: Test B pre/postemergence blackgrass; format: in vivo, Alopecurus myosuroides
# Summary of the method: as §1
# bedstraw = experiment: Test B pre/postemergence bedstraw; format: in vivo, Galium aparine
# Summary of the method: as §1
# pigweed = experiment: Test B pre/postemergence pigweed; format: in vivo, Amaranthus retroflexus
# Summary of the method: as §1
# wheat = experiment: Test B pre/postemergence wheat; format: in vivo, Triticum aestivum
# Summary of the method: as §1
# wild oat = experiment: Test B pre/postemergence wild oat; format: in vivo, Avena fatua
# Summary of the method: as §1
# rice = experiment: Test B flood test rice; format: in vivo, Oryza sativa
# Summary of the method: as §2
# soybean = experiment: Test B pre/postemergence soybean; format: in vivo, Glycine max
# Summary of the method: as §1
# sugar beet = experiment: Test B pre/postemergence sugar beet; format: in vivo, Beta vulgaris
# Summary of the method: as §1
# rape = experiment: Test B pre/postemergence rape; format: in vivo, Brassica napus
# Summary of the method: as §1
# corn = experiment: Test B pre/postemergence corn; format: in vivo, Zea mays
# Summary of the method: as §1
# velvetleaf = experiment: Test B pre/postemergence velvetleaf; format: in vivo, Abutilon theophrasti
# Summary of the method: as §1
# giant foxtail = experiment: Test B pre/postemergence giant foxtail; format: in vivo, Setaria faberii
# Summary of the method: as §1
# morningglory = experiment: Test B pre/postemergence morningglory; format: in vivo, Ipomoea hederacea
# Summary of the method: as §1
# [1] = Preemergence, Rate 62 g/ha, scale of 0 to 10 where 0 is no effect and 10 is complete control
# [2] = Preemergence, Rate 250 g/ha, scale of 0 to 10 where 0 is no effect and 10 is complete control
# [3] = Preemergence, Rate 500 g/ha, scale of 0 to 10 where 0 is no effect and 10 is complete control
# [4] = Rate 62 g/ha, Postemergence, scale of 0 to 10 where 0 is no effect and 10 is complete control
# [5] = Rate 125 g/ha, Postemergence, scale of 0 to 10 where 0 is no effect and 10 is complete control
# [6] = Rate 125 g/ha, Preemergence, scale of 0 to 10 where 0 is no effect and 10 is complete control
# [7] = Rate 250 g/ha, Postemergence, scale of 0 to 10 where 0 is no effect and 10 is complete control
# [8] = Rate 500 g/ha, Postemergence, scale 0 to 10, 0 no effect, 10 complete control
# [9] = Rate 62 g/ha, headed Pre-emergence (flood test species), scale 0 to 10 (0 no effect, 10 complete control)
# [10] = Rate 125 g/ha, Pre-emergence, flood test species, scale 0 to 10 where 0 is no effect and 10 is complete control
# [11] = Rate 250 g/ha, Pre-emergence, flood-test species, scale 0 to 10, 0 is no effect, 10 is complete control
# [12] = Rate 500 g/ha, Pre-emergence, flood test species, scale 0 to 10 (0 no effect, 10 complete control)
smiles,measurement,setting,value
Cc1ccccc1-n1c(=O)on(C(=O)N(c2ccc(C(C)(C)C)cc2)C(C)C)c1=O [Compound 270],B. signalgrass plant response rating,surinam grass; [1],0
same,B. signalgrass plant response rating,surinam grass; [2],0
same,"Plant response rating, B. signalgrass",surinam grass; [3],0
same,B. signalgrass plant response rating,surinam grass; [4],0
same,B. signalgrass plant response rating,surinam grass; [5],0
same,B. signalgrass plant response rating,surinam grass; [6],0
same,"Plant response rating, B. signalgrass",surinam grass; [7],0
same,B. signalgrass plant response rating,surinam grass; [8],0
same,S. Flatsedge plant response rating,smallflower flatsedge; [9],0
same,S. Flatsedge plant response rating,smallflower flatsedge; [10],0
same,S. Flatsedge plant response rating,smallflower flatsedge; [11],0
same,S. Flatsedge plant response rating,smallflower flatsedge; [12],0
same,Cocklebur plant response rating,cocklebur; [1],0
same,Cocklebur plant response rating,cocklebur; [2],0
same,"Plant response rating, Cocklebur",cocklebur; [3],0
same,Cocklebur plant response rating,cocklebur; [4],0
same,Cocklebur plant response rating,cocklebur; [5],0
same,Cocklebur plant response rating,cocklebur; [6],0
same,"Plant response rating, Cocklebur",cocklebur; [7],0
same,Cocklebur plant response rating,cocklebur; [8],0
same,Blackgrass plant response rating,blackgrass; [1],0
same,Blackgrass plant response rating,blackgrass; [2],0
same,"Plant response rating, Blackgrass",blackgrass; [3],0
same,Blackgrass plant response rating,blackgrass; [4],0
same,Blackgrass plant response rating,blackgrass; [5],0
same,Blackgrass plant response rating,blackgrass; [6],0
same,"Plant response rating, Blackgrass",blackgrass; [7],0
same,Blackgrass plant response rating,blackgrass; [8],0
same,Bedstraw plant response rating,bedstraw; [1],0
same,Bedstraw plant response rating,bedstraw; [2],0
same,"Plant response rating, Bedstraw",bedstraw; [3],0
same,Bedstraw plant response rating,bedstraw; [4],0
same,Bedstraw plant response rating,bedstraw; [5],0
same,Bedstraw plant response rating,bedstraw; [6],0
same,"Plant response rating, Bedstraw",bedstraw; [7],0
same,Bedstraw plant response rating,bedstraw; [8],0
same,Redroot pigweed plant response rating,pigweed; [1],0
same,Redroot pigweed plant response rating,pigweed; [2],0
same,"Plant response rating, Redroot pigweed",pigweed; [3],0
same,Redroot pigweed plant response rating,pigweed; [5],0
same,Redroot pigweed plant response rating,pigweed; [6],0
same,"Plant response rating, Redroot pigweed",pigweed; [7],0
same,Redroot pigweed plant response rating,pigweed; [8],0
same,Wheat plant response rating,wheat; [1],0
same,Wheat plant response rating,wheat; [2],0
same,"Plant response rating, Wheat",wheat; [3],0
same,Wheat plant response rating,wheat; [5],0
same,Wheat plant response rating,wheat; [6],0
same,"Plant response rating, Wheat",wheat; [7],0
same,Wheat plant response rating,wheat; [8],0
same,Wild oats plant response rating,wild oat; [1],0
same,Wild oats plant response rating,wild oat; [2],0
same,"Plant response rating, Wild oats",wild oat; [3],0
same,Wild oats plant response rating,wild oat; [5],0
same,"Plant response rating, Wild oats",wild oat; [7],0
same,Wild oats plant response rating,wild oat; [8],0
same,Rice plant response rating,rice; [9],0
same,Rice plant response rating,rice; [10],0
same,Rice plant response rating,rice; [11],0
same,Rice plant response rating,rice; [12],0
same,Soybean plant response rating,soybean; [1],0
same,Soybean plant response rating,soybean; [2],0
same,"Plant response rating, Soybean",soybean; [3],0
same,Soybean plant response rating,soybean; [5],0
same,Soybean plant response rating,soybean; [6],0
same,"Plant response rating, Soybean",soybean; [7],2
same,Soybean plant response rating,soybean; [8],2
same,Sugarbeets plant response rating,sugar beet; [1],0
same,Sugarbeets plant response rating,sugar beet; [2],0
same,"Plant response rating, Sugarbeets",sugar beet; [3],0
same,Sugarbeets plant response rating,sugar beet; [5],0
same,Sugarbeets plant response rating,sugar beet; [6],0
same,"Plant response rating, Sugarbeets",sugar beet; [7],0
same,Sugarbeets plant response rating,sugar beet; [8],0
same,Rape plant response rating,rape; [1],0
same,Rape plant response rating,rape; [2],0
same,"Plant response rating, Rape",rape; [3],0
same,Rape plant response rating,rape; [5],0
same,Rape plant response rating,rape; [6],0
same,"Plant response rating, Rape",rape; [7],0
same,Rape plant response rating,rape; [8],0
same,Corn plant response rating,corn; [1],0
same,Corn plant response rating,corn; [2],0
same,"Plant response rating, Corn",corn; [3],0
same,Corn plant response rating,corn; [4],0
same,Corn plant response rating,corn; [5],0
same,Corn plant response rating,corn; [6],0
same,"Plant response rating, Corn",corn; [7],0
same,Corn plant response rating,corn; [8],0
same,Velvetleaf plant response rating,velvetleaf; [1],0
same,Velvetleaf plant response rating,velvetleaf; [2],0
same,"Plant response rating, Velvetleaf",velvetleaf; [3],0
same,Velvetleaf plant response rating,velvetleaf; [5],0
same,Velvetleaf plant response rating,velvetleaf; [6],0
same,"Plant response rating, Velvetleaf",velvetleaf; [7],0
same,Velvetleaf plant response rating,velvetleaf; [8],0
same,Giant foxtail plant response rating,giant foxtail; [1],0
same,Giant foxtail plant response rating,giant foxtail; [2],0
same,"Plant response rating, Giant foxtail",giant foxtail; [3],0
same,Giant foxtail plant response rating,giant foxtail; [5],0
same,Giant foxtail plant response rating,giant foxtail; [6],0
same,"Plant response rating, Giant foxtail",giant foxtail; [7],0
same,Giant foxtail plant response rating,giant foxtail; [8],0
same,Morningglory plant response rating,morningglory; [1],0
same,Morningglory plant response rating,morningglory; [2],0
same,"Plant response rating, Morningglory",morningglory; [3],0
same,Morningglory plant response rating,morningglory; [5],0
same,Morningglory plant response rating,morningglory; [6],0
same,"Plant response rating, Morningglory",morningglory; [7],0
same,Morningglory plant response rating,morningglory; [8],0
